Holding throughout (experiment): growth of human tumour cells (NCI), 48 h
The subject of test [1] is UACC-62 melanoma.
The test system of test [2] is HCT-116 colon.
Test [3] relates to 786-0 renal.
The test system of test [4] is MCF7 breast.
The test system of test [5] is BT-549 breast.
In test [6] the test system is EKVX NSCLC.
The subject of test [7] is KM12 colon.
For test [8], the system named is SK-MEL-2 melanoma.
The subject of test [9] is SK-MEL-5 melanoma.
Test [10] concerns UO-31 renal.

Molecules are shown by their SMILES.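 Following 48 hours of exposure in 96-well plates, responses at five concentrations were used to interpolate endpoints linearly. GI50 = concentration required for 50% inhibition of growth. TGI: concentration producing complete growth inhibition.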

`COC(=O)c1c2c(c(C)[n+]([O-])c1C)C(=O)C(NCc1ccc(F)c(Cl)c1)=CC2=O`: the GI50 was 1.38 µM in test [1]; 2.34 µM in test [2]; 3.1 µM in [3]; 1.32 µM in [4]; 1.88 µM in [5]; 1.93 µM in test [6]. Moreover, the GI50 in [7] was 1.96 µM; in [8], 2.02 µM; in test [9], 0.426 µM; in test [10] it was 2.11 µM. For the same compound, the TGI in [1] amounted to 3.12 µM; in test [2], 10.2 µM; in test [3] it was 22.7 µM; in test [4], 3.23 µM; in test [5], 5.81 µM; in [6] it was 5.18 µM. Further, the TGI turned out to be 9.63 µM in [7], 5.06 µM in test [8], 1.57 µM in test [9] and 7.46 µM in test [10].
As to `C[C@]12CC[C@H]3[C@@H](C[C@@H]4SC(Nc5cccc(F)c5)=N[C@@]45CC(=O)CC[C@]35C)[C@@H]1CCC2=O`, the GI50 in test [1] was 1.54 µM; in test [2], 1.59 µM; in test [3] it was 1.43 µM; in test [4], 1.37 µM; in test [5], 1.54 µM; in [6] it was 2.5 µM. Moreover, the GI50 was 3 µM in test [7], 1.86 µM in test [8], 2.02 µM in test [9] and 1.67 µM in [10]. Besides, the TGI in test [1] was 3.12 µM; in [2], 3.24 µM; in test [3], 2.83 µM; in test [4], 3.28 µM; in test [5], 3.61 µM; in test [6], 18.5 µM. Also, the TGI in test [7] is 12.4 µM; in [8] it was 5.2 µM; in [9] it was 4.32 µM; in test [10], 3.59 µM.
Consider `C#C[C@]1(O)CC[C@H]2[C@@H]3CC=C4c5nc(Nc6ccc(OC)cc6OC)sc5CC[C@]4(C)[C@H]3CC[C@@]21C`, for which the GI50 in test [1] is 1.76 µM; in [2], 1.21 µM; in test [3], 0.504 µM; in [4] it was 0.978 µM; in test [5] it was 0.656 µM; in test [6], 2.66 µM. Also, the GI50 in test [7] was 2.07 µM; in [8], 1.23 µM; in [9], 1.73 µM; in test [10] it was 1.36 µM. Moreover, the TGI in test [1] turned out to be 5.04 µM; in test [2], 2.7 µM; in test [3], 2.6 µM; in test [4], 2.65 µM; in [5], 4.77 µM; in test [6] it was 17.8 µM. Besides, the TGI in test [7] amounted to 5.57 µM; in [8], 6.39 µM; in test [9], 3.26 µM; in test [10] it was 5.16 µM.
Turning to `O=C1c2cccc3c(N4CCN(c5ccc6c7c(cccc57)C(=O)N(CCN5CCNCC5)C6=O)CC4)ccc(c23)C(=O)N1CCN1CCNCC1`, the GI50 was 15 µM in test [1]; 3.8 µM in [2]; 1.84 µM in test [3]; 11.2 µM in [4]; 19 µM in test [5]; 20.9 µM in test [6]. Further, the GI50 in test [7] is 12 µM; in [8] it was 24.7 µM; in test [9], 16.1 µM; in [10], 12.8 µM. Also, the TGI stood at 30.2 µM in test [1]; 42.9 µM in [2]; 4.32 µM in test [3]; 41.1 µM in test [4]; 39.3 µM in test [5]; 47.1 µM in [6]. Besides, the TGI came out at 30.5 µM in [7], 67.5 µM in [8], 53.4 µM in test [9] and 33 µM in test [10].
In the case of `O=C(c1cccs1)c1c(C(F)(F)F)n([O-])c2cc(F)c(F)cc2[n+]1=O`, the GI50 was 1.54 µM in test [1]; 1.82 µM in [2]; 4.44 µM in test [3]; 1.31 µM in test [4]; 1.91 µM in test [5]; 2.44 µM in [6]. In addition, the GI50 in test [7] is 4.95 µM; in test [8] it was 5.44 µM; in test [9], 1.9 µM; in test [10], 2.97 µM. Also, the TGI in test [1] turned out to be 3.58 µM; in test [2], 8.01 µM; in test [3] it was 8.75 µM; in test [4], 15.4 µM; in test [5], 3.24 µM; in test [6], 6.73 µM. Also, the TGI in test [7] is 8.73 µM; in test [8], 8.63 µM; in test [9], 4.44 µM; in [10], 5.51 µM.

Values taken from PubChem BioAssay (NCI).
